target: T1, hALDH2 (recombinant human mitochondria ALDH) (Homo sapiens, UniProt P05091); assay: ALDH2 inhibition assay (NADH formation, formaldehyde substrate); format: biochemical; settings: not given
T1 sequence (P05091 18-517): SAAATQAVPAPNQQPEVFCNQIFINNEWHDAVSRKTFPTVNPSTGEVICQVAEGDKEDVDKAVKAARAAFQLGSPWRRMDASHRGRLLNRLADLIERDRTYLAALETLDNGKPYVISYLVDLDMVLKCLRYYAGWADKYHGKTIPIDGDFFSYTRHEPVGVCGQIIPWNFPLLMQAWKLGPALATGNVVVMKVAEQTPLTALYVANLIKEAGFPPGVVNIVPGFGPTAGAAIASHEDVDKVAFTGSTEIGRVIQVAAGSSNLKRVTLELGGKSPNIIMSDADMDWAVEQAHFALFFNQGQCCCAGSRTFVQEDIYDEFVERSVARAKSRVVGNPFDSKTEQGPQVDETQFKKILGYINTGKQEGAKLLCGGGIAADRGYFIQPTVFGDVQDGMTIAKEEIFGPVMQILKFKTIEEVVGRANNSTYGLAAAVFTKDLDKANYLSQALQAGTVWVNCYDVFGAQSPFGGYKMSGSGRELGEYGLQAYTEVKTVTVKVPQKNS
Method: ALDH2 inhibition assays were performed in sodium phosphate buffer (50 mM, pH 7.4) containing 1.2 mM NAD^+ (Sigma N7004), 1 nM hALDH2 (recombinant human mitochondria ALDH), various concentrations of test compounds (from 0.03 nM to 1000 nM), and 0.15 mM freshly prepared formaldehyde solution (Ladd Research 20295). Reactions were initiated by the addition of formaldehyde and rates were recorded by monitoring NADH formation in a temperature controlled (25° C.) FluoroMax-2 Fluorimeter with excitation and emission wavelengths set at 340 and 460 nm, respectively. […] Normally, IC50 values were determined by fitting concentration-inhibition data to sigmoidal dose-response curves with two-floating parameters: IC50 and Hill coefficient. When tight binding situation was suspected, apparent Ki values were estimated by fitting dose-response data to Morrison's equation [Methods in Enzymology 63, 437-467, 1979].

| IC50 [nM] | Structure (SMILES) |
| --- | --- |
| 62 | O=c1c(-c2ccc(O)cc2)coc2cc(OCc3noc(-c4cccc(F)c4)n3)ccc12 [PT-42, 7-{[5-(3-fluorophenyl)(1,2,4-oxadiazol-3-yl)]methoxy}-3-(4-hydroxyphenyl)chromen-4-one] |
| 470 | O=c1c(-c2ccc(O)cc2)coc2cc(OCc3nc(-c4ccccc4)no3)ccc12 [PT-43, 3-(4-hydroxyphenyl)-7-[(3-phenyl(1,2,4-oxadiazol-5-yl))methoxy]chromen-4-one] |
| 270 | O=c1c(-c2ccc(O)cc2)coc2cc(OCc3nc(-c4ccc(Cl)cc4)no3)ccc12 [PT-44, 3-(4-hydroxyphenyl)-7-({3-[4-chlorophenyl](1,2,4-oxadiazol-5-yl)}methoxy)chromen-4-one] |
| 140 | CS(=O)(=O)Nc1ccc(-c2coc3cc(OCc4noc(-c5ccc(F)cc5)n4)ccc3c2=O)cc1 [PT-48, 7-{[5-(4-fluorophenyl)(1,2,4-oxadiazol-3-yl)]methoxy}-3-{4-[(methylsulfonyl)amino]-phenyl}chromen-4-one] |
| 16 | O=C(O)c1cnc(COc2ccc3c(=O)c(-c4ccc(O)cc4)coc3c2)o1 [PT-49, 2-{[3-(4-hydroxyphenyl)-4-oxochromen-7-yloxy]methyl}-1,3-oxazole-5-carboxylic acid] |
| 5 | O=c1c(-c2ccc(O)cc2)coc2cc(OCNCc3cccc(C(F)(F)F)c3)ccc12 [PT-54, 3-(4-hydroxyphenyl)-7-[({[3-(trifluoromethyl)phenyl]methyl}amino)methoxy]chromen-4-one] |
| 72 | O=c1c(-c2ccc(O)cc2)coc2cc(OCc3cc(-c4cc(C(F)(F)F)cc(C(F)(F)F)c4)on3)ccc12 [PT-62, 7-({5-[3,5-bis(trifluoromethyl)phenyl]isoxazol-3-yl}methoxy)-3-(4-hydroxyphenyl)chromen-4-one] |
| 180 | N#Cc1ccc(-c2coc3cc(OCc4cc(-c5cccc(C(F)(F)F)c5)no4)ccc3c2=O)cc1 [PT-69, 4-[4-oxo-7-({3-[3-(trifluoromethyl)phenyl]isoxazol-5-yl}methoxy)chromen-3-yl]benzenecarbonitrile] |
| 122 | O=c1c(-c2ccc(O)cc2)coc2cc(OCc3cnc(-c4ccc(C(F)(F)F)cc4)s3)ccc12 [PT-77, 3-(4-hydroxyphenyl)-7-({2-[4-(trifluoromethyl)phenyl](1,3-thiazol-5-yl)}methoxy)chromen-4-one] |
| 139 | O=C(COc1ccc2c(=O)c(-c3ccc(O)cc3)coc2c1)c1cccc(F)c1 [PT-78, 7-[2-(3-fluorophenyl)-2-oxoethoxy]-3-(4-hydroxyphenyl)chromen-4-one] |
| 4 | O=c1c(-c2ccc(O)cc2)coc2cc(OCc3nnc(-c4ccccc4Cl)o3)ccc12 [PT-80, 7-{[5-(2-chlorophenyl)(1,3,4-oxadiazol-2-yl)]methoxy}-3-(4-hydroxyphenyl)chromen-4-one] |

same assay, conditions: at 1 μM

| hALDH2 inhibition (IC50 hALDH2 column) [%] | Structure (SMILES) |
| --- | --- |
| 14 | O=c1c(-c2cn[nH]c2)coc2cc(OCc3noc(-c4cc(F)cc(C(F)(F)F)c4)n3)ccc12 [PT-75, 7-({5-[3-fluoro-5-(trifluoromethyl)phenyl](1,2,4-oxadiazol-3-yl)}methoxy)-3-(5-hydropyrazol-4-yl)chromen-4-one] |

same assay, conditions: at 1 μM; read-out: hALDH2 inhibition (IC50 hALDH2 column)

| inhibition at 1 µM [%] | Structure (SMILES) |
| --- | --- |
| 10 | O=c1c(-c2ccc(OCc3ccc(C(F)(F)F)nc3)cc2)coc2cc(OCc3cncc(C(F)(F)F)c3)ccc12 [PT-46, 7-{[5-(trifluoromethyl)(3-pyridyl)]methoxy}-3-(4-{[6-(trifluoromethyl)(3-pyridyl)]methoxy}phenyl)chromen-4-one] |
| 47 | CO/N=C(\N)c1ccc(-c2coc3cc(OCc4cccc(C(=O)OC)c4)ccc3c2=O)cc1 [PT-50, methyl 3-({3-[4-((1Z)-1-amino-2-methoxy-2-azavinyl)phenyl]-4-oxochromen-7-yloxy}methyl)benzoate] |
| 14 | NC(=O)c1ccc(-c2coc3cc(OCc4noc(-c5cc(F)cc(C(F)(F)F)c5)n4)ccc3c2=O)cc1 [PT-72, 4-[7-({5-[3-fluoro-5-(trifluoromethyl)phenyl](1,2,4-oxadiazol-3-yl)}methoxy)-4-oxochromen-3-yl]benzamide] |
